Test results reported in the NIST ThermoML archive (doi:10.1016/j.jct.2008.01.007).
Numbers after ± are expanded uncertainties.

Assay: xn = mol fraction of the nth substance listed
Conditions: 101 kPa, Liquid

OCCN1CCOCC1 [4-morpholineethanol] + O
Conditions | mass density, 293.15 K [kg/m3] | mass density, 303.15 K [kg/m3] | mass density, 313.15 K [kg/m3] | viscosity, 293.15 K [mPa·s] | viscosity, 303.15 K [mPa·s] | viscosity, 313.15 K [mPa·s]
x1 = 0.0628 | 1041.44 ± 2.3 | 1033.11 ± 2.1 | 1024.47 ± 1.9 | 14.46 ± 1 | 9.721 ± 0.73 | 8.148 ± 0.63
x1 = 0.1126 | 1061.42 ± 2.6 | 1052.36 ± 2.5 | 1043.65 ± 2.3 | 22.98 ± 1.5 | 18.02 ± 1.2 | 13.55 ± 0.96
x1 = 0.1985 | 1078.87 ± 3 | 1069.04 ± 2.8 | 1060.34 ± 2.6 | 33.29 ± 2.2 | 27.47 ± 1.8 | 22.61 ± 1.5
x1 = 0.2466 | 1083.81 ± 3.1 | 1073.73 ± 2.9 | 1065.05 ± 2.7 | – | – | –
x1 = 0.2887 | 1086.11 ± 3.1 | 1075.86 ± 2.9 | 1067.22 ± 2.8 | 39.28 ± 2.6 | 33.52 ± 2.2 | 28.26 ± 1.9
x1 = 0.3459 | 1087.54 ± 3.2 | 1077.13 ± 3 | 1068.55 ± 2.8 | 41.75 ± 2.7 | 35.73 ± 2.3 | 30.86 ± 2
x1 = 0.4127 | 1087.67 ± 3.2 | 1077.14 ± 3 | 1068.64 ± 2.8 | 43.23 ± 2.8 | 37.33 ± 2.4 | 31.64 ± 2.1
x1 = 0.4852 | 1086.69 ± 3.2 | 1076.07 ± 3 | 1067.65 ± 2.8 | 44.02 ± 2.9 | 37.36 ± 2.4 | 31.41 ± 2.1
x1 = 0.5438 | 1085.22 ± 3.2 | 1074.56 ± 3 | – | – | – | –
x1 = 0.5842 | 1084.37 ± 3.2 | 1073.69 ± 3 | – | 43.33 ± 2.8 | 36.22 ± 2.4 | –
x1 = 0.6438 | 1082.81 ± 3.1 | 1072.11 ± 3 | – | 42.3 ± 2.7 | 34.92 ± 2.3 | –
x1 = 0.6878 | 1081.6 ± 3.1 | 1070.89 ± 2.9 | – | – | – | –
x1 = 0.7439 | 1080.31 ± 3.1 | 1069.59 ± 2.9 | – | 39.78 ± 2.6 | 32.9 ± 2.2 | –
x1 = 0.8238 | 1078.68 ± 3.1 | 1068.19 ± 2.9 | – | 36.28 ± 2.4 | 30.25 ± 2 | –
x1 = 0.8846 | 1077.69 ± 3.1 | 1067.27 ± 2.9 | – | 33.61 ± 2.2 | 27.11 ± 1.8 | –
x1 = 0.9486 | 1077.17 ± 3.1 | 1066.94 ± 3 | – | – | – | –
x1 = 1 | 1076.58 ± 3.1 | 1066.51 ± 3 | – | 26.58 ± 1.8 | 21.99 ± 1.5 | –
